# Test results reported in patent US10941157B2, “Pesticidal compositions and uses thereof” (Gilead Apollo, LLC, priority 2015, dated 2021).
# Like-named read-outs stand apart in the source and are kept apart here.
# Experiments:
# Format in all cases: cell-based
# [1] = system: Botrtyis cinerea (Bc); assay: In vitro pathogen growth inhibition assay, Bc; details: 48 h
# Method in brief: (§1)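 Value reported is the compound concentration reaching ≥90% growth inhibition, from OD readings at 24 and 48 h after blank subtraction, confirmed visually. Inoculum was spores diluted in 17% V8 medium, except Rs, using 1.5 mm mycelial plugs in ¼ PDB; actual compound concentration corrected via OD600.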
# [2] = system: Collectotrichum graminicola (Cg); assay: In vitro pathogen growth inhibition assay, Cg; details: 48 h
# Method in brief: as §1
# [3] = system: Diplodia maydis (Dm); assay: In vitro pathogen growth inhibition assay, Dm; details: Stenocarpella maydis, 48 h
# Method in brief: (§2)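 Spores in 17% V8 liquid medium, or 1.5 mm Rs mycelial plugs in ¼ PDB, incubated with compound; final concentration checked by OD600 for precipitation. OD readings at 24 and 48 h, blank-subtracted, plus visual ratings; value is concentration giving ≥90% growth inhibition.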
# [4] = system: Fusarium moniliforme (Fm); assay: In vitro pathogen growth inhibition assay, Fm; details: Fusarium verticillioides
# Method in brief: as §1
# [5] = system: Fusarium virguliforme (Fv); assay: In vitro pathogen growth inhibition assay, Fv
# Method in brief: as §2
# [6] = system: Phytophthora capsici (Pc); assay: In vitro pathogen growth inhibition assay, Pc; details: 48 h
# Method in brief: as §2
# [7] = system: Rhizoctonia solani (Rs); assay: In vitro pathogen growth inhibition assay, Rs (mycelial plugs); details: Rhizoctonia solani, 48 h
# Method in brief: as §2
# [8] = system: Septoria tritici (St); assay: In vitro pathogen growth inhibition assay, St; details: Zymoseptoria tritici, 48 h
# Method in brief: as §1
# [9] = ≥90% inhibition, 48 hours vs 2% DMSO control, read-out: Compound Concentration (ppm) sufficient for ≥90% inhibition of growth, Bc
# [10] = ≥90% inhibition, 48 hours vs 2% DMSO control, read-out: Compound Concentration (ppm) sufficient for ≥90% inhibition of growth, Cg
# [11] = ≥90% inhibition, 48 hours vs 2% DMSO control, read-out: Compound Concentration (ppm) sufficient for ≥90% inhibition of growth, Dm
# [12] = ≥90% inhibition, 48 hours vs 2% DMSO control, read-out: Compound Concentration (ppm) sufficient for ≥90% inhibition of growth, Fm
# [13] = ≥90% inhibition, 48 hours vs 2% DMSO control, read-out: Compound Concentration (ppm) sufficient for ≥90% inhibition of growth, Fv
# [14] = ≥90% inhibition, 48 hours vs 2% DMSO control, read-out: Compound Concentration (ppm) sufficient for ≥90% inhibition of growth, Pc
# [15] = ≥90% inhibition, mycelial plugs, 48 hours vs 2% DMSO control, read-out: Compound Concentration (ppm) sufficient for ≥90% inhibition of growth, Rs
# [16] = ≥90% inhibition, 48 hours vs 2% DMSO control, read-out: Compound Concentration (ppm) sufficient for ≥90% inhibition of growth, St
# [17] = concentration sufficient to ≥90% inhibition of growth, 48 hours vs 2% DMSO control, read-out: Compound Concentration (ppm) for ≥90% inhibition, Bc
# [18] = concentration sufficient to ≥90% inhibition of growth, 48 hours vs 2% DMSO control, read-out: Compound Concentration (ppm) for ≥90% inhibition, Cg
# [19] = concentration sufficient to ≥90% inhibition of growth, 48 hours vs 2% DMSO control, read-out: Compound Concentration (ppm) for ≥90% inhibition, Dm
# [20] = concentration sufficient to ≥90% inhibition of growth, 48 hours vs 2% DMSO control, read-out: Compound Concentration (ppm) for ≥90% inhibition, Fm
# [21] = concentration sufficient to ≥90% inhibition of growth, 48 hours vs 2% DMSO control, read-out: Compound Concentration (ppm) for ≥90% inhibition, Fv
# [22] = concentration sufficient to ≥90% inhibition of growth, 48 hours vs 2% DMSO control, read-out: Compound Concentration (ppm) for ≥90% inhibition, Pc
# [23] = concentration sufficient to ≥90% inhibition of growth, 48 hours vs 2% DMSO control, read-out: Compound Concentration (ppm) for ≥90% inhibition, Rs
# [24] = concentration sufficient to ≥90% inhibition of growth, 48 hours vs 2% DMSO control, read-out: Compound Concentration (ppm) for ≥90% inhibition, St
# [25] = ≥90% growth inhibition, 48 hours, vs 2% DMSO control, read-out: Compound Concentration (ppm) sufficient for ≥90% inhibition of Bc
# [26] = ≥90% growth inhibition, 48 hours, vs 2% DMSO control, read-out: Compound Concentration (ppm) sufficient for ≥90% inhibition of Cg
# [27] = ≥90% growth inhibition, 48 hours, vs 2% DMSO control, read-out: Compound Concentration (ppm) sufficient for ≥90% inhibition of Dm
# [28] = ≥90% growth inhibition, 48 hours, vs 2% DMSO control, read-out: Compound Concentration (ppm) sufficient for ≥90% inhibition of Fm
# [29] = ≥90% growth inhibition, 48 hours, vs 2% DMSO control, read-out: Compound Concentration (ppm) sufficient for ≥90% inhibition of Fv
# [30] = ≥90% growth inhibition, 48 hours, vs 2% DMSO control, read-out: Compound Concentration (ppm) sufficient for ≥90% inhibition of Pc
# [31] = ≥90% growth inhibition, mycelial plugs, 48 hours, vs 2% DMSO control, read-out: Compound Concentration (ppm) sufficient for ≥90% inhibition of Rs
# [32] = ≥90% growth inhibition, 48 hours, vs 2% DMSO control, read-out: Compound Concentration (ppm) sufficient for ≥90% inhibition of St
Compound,"IC90 [1, 9]","IC90 [2, 10]","IC90 [3, 11]","IC90 [4, 12]","IC90 [5, 13]","IC90 [6, 14]","IC90 [7, 15]","IC90 [8, 16]",also measured
COc1ccc(F)cc1[C@H](Cn1c(=O)n(C(C)(C)C(=O)NC(C)C)c(=O)c2c(C)c(-n3nccn3)sc21)OC[C@@H](C)O [Compound I-065],2 µg/mL,0.4 µg/mL,0.4 µg/mL,0.08 µg/mL,0.4 µg/mL,≥ 2 µg/mL,≥ 0.08 µg/mL,≥ 2 µg/mL,–
Cc1c(-n2cccn2)sc2c1c(=O)n(C(C)(C)C(=O)NC(C)C)c(=O)n2CCc1cc(F)ccc1OCCO [Compound I-337],–,–,–,–,–,–,–,–,"IC90 [1, 17]: 50 µg/mL; IC90 [2, 18]: > 50 µg/mL; IC90 [3, 19]: > 50 µg/mL; IC90 [4, 20]: 10 µg/mL; IC90 [5, 21]: 10 µg/mL; IC90 [6, 22]: > 50 µg/mL; IC90 [7, 23]: 10 µg/mL; IC90 [8, 24]: > 50 µg/mL"
CCNC(=O)C(C)(C)n1c(=O)c2c(C)c(-n3nccn3)sc2n(C[C@H](OCC(C)C)c2cc(F)ccc2OC)c1=O [Compound I-025],0.4 µg/mL,0.4 µg/mL,0.4 µg/mL,0.08 µg/mL,0.4 µg/mL,> 50 µg/mL,0.4 µg/mL,> 10 µg/mL,–
COc1ccc(F)cc1[C@H](Cn1c(=O)n(C(C)(C)C(=O)NC(C)C)c(=O)c2c(C)c(-c3ncco3)sc21)OC1CCC(=O)CC1 [Compound I-024],0.4 µg/mL,2 µg/mL,≥ 2 µg/mL,0.08 µg/mL,2 µg/mL,> 50 µg/mL,0.4 µg/mL,> 50 µg/mL,–
COc1ccc(F)cc1[C@@H](Cn1c(=O)n(C(C)(C)C(=O)NC(C)C)c(=O)c2c(C)c(-n3nccn3)sc21)OCCCO [Compound I-320],–,–,–,–,–,–,–,–,"IC90 [1, 17]: 50 µg/mL; IC90 [2, 18]: > 50 µg/mL; IC90 [3, 19]: > 50 µg/mL; IC90 [4, 20]: 50 µg/mL; IC90 [5, 21]: 50 µg/mL; IC90 [6, 22]: > 50 µg/mL; IC90 [7, 23]: > 50 µg/mL; IC90 [8, 24]: > 50 µg/mL"
COc1ccc(F)cc1[C@H](Cn1c(=O)n(CC(=O)N2CCCC2)c(=O)c2c(C)c(-n3nccn3)sc21)OCCO [Compound I-088],0.08 µg/mL,2 µg/mL,2 µg/mL,0.08 µg/mL,0.4 µg/mL,> 50 µg/mL,0.08 µg/mL,> 50 µg/mL,–
CNC(=O)C(C)(C)n1c(=O)c2c(C)c(-n3nccn3)sc2n(C[C@H](OCCC#N)c2cc(F)ccc2OC)c1=O [Compound I-207],–,–,–,–,–,–,–,–,"IC90 [1, 25]: 2 µg/mL; IC90 [2, 26]: 10 µg/mL; IC90 [3, 27]: ≥ 2 µg/mL; IC90 [4, 28]: 0.08 µg/mL; IC90 [5, 29]: 2 µg/mL; IC90 [6, 30]: > 50 µg/mL; IC90 [7, 31]: 0.08 µg/mL; IC90 [8, 32]: > 50 µg/mL"
COc1ccc(F)cc1[C@H](Cn1c(=O)n(CC(=O)NC(C)C)c(=O)c2c(C)c(-n3nccn3)sc21)OC(C)C [Compound I-060],0.4 µg/mL,> 50 µg/mL,0.4 µg/mL,0.08 µg/mL,0.4 µg/mL,> 50 µg/mL,≥ 2 µg/mL,> 50 µg/mL,–
COc1ccc(F)cc1[C@H](Cn1c(=O)n(C(C)(C)C(=O)NC(C)C)c(=O)c2c(C)c(-c3ncco3)sc21)OC1CCOCC1 [Compound I-015],0.4 µg/mL,2 µg/mL,≥ 0.4 µg/mL,0.08 µg/mL,0.4 µg/mL,> 50 µg/mL,10 µg/mL,> 10 µg/mL,–
COc1ccc(F)cc1[C@H](Cn1c(=O)n(C(C)(C)C(=O)NC(C)C)c(=O)c2c(C)c(-n3cccn3)sc21)OCCS(C)(=O)=O [Compound I-286],–,–,–,–,–,–,–,–,"IC90 [1, 25]: 2 µg/mL; IC90 [2, 26]: 2 µg/mL; IC90 [3, 27]: ≥ 50 µg/mL; IC90 [4, 28]: 2 µg/mL; IC90 [5, 29]: 2 µg/mL; IC90 [6, 30]: ≥ 50 µg/mL; IC90 [7, 31]: 2 µg/mL; IC90 [8, 32]: > 50 µg/mL"
